# Assay results published in US20050043262A1, “Novel specific inhibitor of the cyclin kinase inhibitor p21Waf1/Cip1 and methods of using the inhibitor” (priority 2000, published 2005).
# System: Rb
# Experiment: Rb hyperphosphorylation by Western blot in A431 cells
# Format: cell-based, human
# Settings: 400 nM, 10% serum 6 and 24 hours
# Method: Upon activation by cyclin/cdk complexes, the Rb protein in turn becomes phosphorylated, causing it to release the transcription factors known as E2F, leading to early oncogene expression and ultimately to cell growth. An effect of p21^Waf1/Cip1 on cdk/Rb interaction would be evident by a change in phosphorylation state of the Rb protein: this property can be assessed by examining small changes in gel mobility of this protein. A431 cells were transfected with 400 nM antisense p21^Waf1/Cip1 oligodeoxynucleotide (SEQ. ID NO.:1) or with lipofectin only (no DNA). After overnight incubation in serum-free medium, the cells were stimulated with complete media for 6 or 24 hours, lysed, and the lysates were Western blotted with Rb antibody.
substance,measurement,value
5′-GACATCACCAGGATCGGACAT-3′,serum-induced Rb hyperphosphorylation versus no-DNA control,no difference
